From patent publication US8168651B2, “Protein kinase modulators” (Cylene Pharmaceuticals, Inc., priority 2008, dated 2012)
Read-outs that look alike come from different tables or passages of the source.

Assays:
recombinant human PIM1 = recombinant human PIM1 (Homo sapiens (Human), UniProt P11309); assay: PIM-1 kinase activity in cell-free in vitro assay; type: biochemical; conditions: for inhibition at 0.5 µM: 500 nM compound, read-out: PIM-1: % inh 500 nM
Jurkat = assay: Cell proliferation modulatory activity, Jurkat; type: cell-based; conditions: Homo sapiens
[1] = system: HCT-116 human colorectal carcinoma cells; assay: Cell-proliferation assay using Alamar Blue dye; type: cell-based; conditions: Homo sapiens;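 note: cells exposed to compound for about 4 days, then Alamar Blue added and dye fluorescence read after about 4 h, compared with medium-only control wells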
K-562 [2] = assay: Cell proliferation modulatory activity, K-562; type: cell-based; conditions: Homo sapiens, K562
MV-4-11 = assay: Cell proliferation modulatory activity, MV-4-11; type: cell-based; conditions: Homo sapiens, MV4-11
MDA MB231 = MDA MB231 IC50 (Table 46); type: cell-based; conditions: Homo sapiens, MDA-MB-231
MV-411 = MV-411 IC50 (Table 46); type: cell-based; conditions: Homo sapiens, MV4-11
K-562 [3] = assay: K-562 IC50 (Table 46); type: cell-based; conditions: Homo sapiens, K562
[4] = system: MiaPaca human pancreatic carcinoma cells; assay: Cell-proliferation assay using Alamar Blue dye; type: cell-based; conditions: MIA PaCa-2
Protocol: (§1) A representative cell-proliferation assay protocol using Alamar Blue dye (stored at 4° C., use 20 ul per well) is described hereafter.
(§2) • a. Split and trypsinize cells. • b. Count cells using hemocytometer. • c. Plate 4,000-5,000 cells per well in 100 μl of medium and seed into a 96-well plate according to the following plate layout. Add cell culture medium only to wells B10 to B12. Wells B1 to B9 have cells but no compound added.
(§3) • d. Add 100 μl of 2× drug dilution to each well in a concentration shown in the plate layout above. At the same time, add 100 μl of media into the control wells (wells B10 to B12). Total volume is 200 μl/well. • e. Incubate four (4) days at 37° C., 5% CO2 in a humidified incubator. • f. Add 20 μl Alamar Blue reagent to each well. • g. Incubate for four (4) hours at 37° C., 5% CO2 in a humidified incubator. • h. Record fluorescence at an excitation wavelength of 544 nm and emission wavelength of 590 nm using a microplate reader.
(§4) In the assays, cells are cultured with a test compound for approximately four days, the dye then is added to the cells and fluorescence of […] dye is detected after approximately four hours. Different types of cells can be utilized in the assays (e.g., HCT-116 human colorectal carcinoma cells, PC-3 human prostatic cancer cells and MiaPaca human pancreatic carcinoma cells). Anti-proliferative effects of representative compounds are provided hereafter

PARP-HSA enzyme = PARP-HSA enzyme (Homo sapiens (Human), UniProt P09874); assay: PARP assay (chemiluminescent PARP assay kit, Trevigen); type: biochemical; conditions: for PARP Inhibition: at 1 μM
PARP-HSA enzyme, sequence (P09874 whole entry): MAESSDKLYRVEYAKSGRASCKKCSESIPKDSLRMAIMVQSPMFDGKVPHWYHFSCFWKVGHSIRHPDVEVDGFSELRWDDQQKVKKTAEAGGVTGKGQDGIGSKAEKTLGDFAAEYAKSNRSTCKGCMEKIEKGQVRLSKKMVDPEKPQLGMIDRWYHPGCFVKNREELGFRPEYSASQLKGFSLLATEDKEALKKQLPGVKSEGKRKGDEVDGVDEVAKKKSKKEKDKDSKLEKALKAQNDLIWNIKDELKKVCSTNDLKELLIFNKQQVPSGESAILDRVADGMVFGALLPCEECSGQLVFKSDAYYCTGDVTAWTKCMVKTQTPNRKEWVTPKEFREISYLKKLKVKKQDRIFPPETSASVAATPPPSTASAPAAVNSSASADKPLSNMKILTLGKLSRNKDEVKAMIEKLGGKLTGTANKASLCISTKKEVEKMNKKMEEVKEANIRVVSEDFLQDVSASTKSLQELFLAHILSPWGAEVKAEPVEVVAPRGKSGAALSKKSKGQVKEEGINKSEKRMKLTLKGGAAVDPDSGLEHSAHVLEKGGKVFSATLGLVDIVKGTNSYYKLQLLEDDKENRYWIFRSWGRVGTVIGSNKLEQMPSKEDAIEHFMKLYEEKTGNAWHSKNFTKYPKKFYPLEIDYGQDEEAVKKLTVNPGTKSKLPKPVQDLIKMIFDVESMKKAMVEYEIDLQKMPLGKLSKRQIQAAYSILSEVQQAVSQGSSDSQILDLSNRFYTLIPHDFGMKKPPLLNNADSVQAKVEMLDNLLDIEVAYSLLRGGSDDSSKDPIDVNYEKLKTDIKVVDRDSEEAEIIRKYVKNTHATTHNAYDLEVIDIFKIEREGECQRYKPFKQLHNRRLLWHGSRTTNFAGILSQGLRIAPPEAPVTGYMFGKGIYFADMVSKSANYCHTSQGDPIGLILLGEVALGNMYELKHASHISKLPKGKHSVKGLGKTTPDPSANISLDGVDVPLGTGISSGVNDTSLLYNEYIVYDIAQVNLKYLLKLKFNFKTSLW
Protocol: Modulatory activity of compounds described herein was assessed in vitro in cell-free CK2 assays. Modulatory activity of compounds described herein also are assessed in vitro in cell-free PARP assays. These assays are described hereafter.
PARP assays are conducted using a chemiluminescent PARP assay kit (Trevigen). Briefly, reactions are performed in Histone-coated strip wells, by adding 10 microliters test compound dissolved in 1×PARP Buffer (prepared by mixing 20×PARP buffer diluted with high-purity water) and 15 microliters diluted PARP-HSA enzyme (diluted in 1×PARP buffer, 0.1 unit per well) to 25 microliters PARP cocktail (prepared from 10×PARP cocktail and 10× activated DNA, both 2.5 microliters per well and 20 microliters per well of 1×PARP buffer). The reactions are incubated at ambient temperature for 60 minutes, then the liquid was removed. After washing the wells four times with PBS (200 ul), 50 microliters of STREP-HRP (Horseradish Peroxidase) solution (diluted 500-fold in 1× Strep-Diluent) was added and the reactions were allowed to incubate for 30 minutes at ambient temperature. The liquid was removed and, after washing the wells four times with PBS (200 ul), 50 microliters each of PeroxyGlo A and B (Chemiluminescent Horseradish Peroxidase substrates) are added and the resulting chemiluminescence quantified on the SpectraMax M5 plate reader.

MDAMB231 = assay: Cell-proliferation assay using Alamar Blue dye; type: cell-based; conditions: Homo sapiens, MDA-MB-231
Protocol: as §1
96-Well Plate Setup and Compound Treatment
as §2, §3, §4

recombinant human CK2 = recombinant human CK2 (Homo sapiens (Human), UniProt P68400); assay: CK2 assay (cell-free, 33P-ATP filter plate); type: biochemical; conditions: 500 nM compound, cell-free; read-out: CK2: % inh 500 nM
recombinant human CK2, sequence (P68400 whole entry): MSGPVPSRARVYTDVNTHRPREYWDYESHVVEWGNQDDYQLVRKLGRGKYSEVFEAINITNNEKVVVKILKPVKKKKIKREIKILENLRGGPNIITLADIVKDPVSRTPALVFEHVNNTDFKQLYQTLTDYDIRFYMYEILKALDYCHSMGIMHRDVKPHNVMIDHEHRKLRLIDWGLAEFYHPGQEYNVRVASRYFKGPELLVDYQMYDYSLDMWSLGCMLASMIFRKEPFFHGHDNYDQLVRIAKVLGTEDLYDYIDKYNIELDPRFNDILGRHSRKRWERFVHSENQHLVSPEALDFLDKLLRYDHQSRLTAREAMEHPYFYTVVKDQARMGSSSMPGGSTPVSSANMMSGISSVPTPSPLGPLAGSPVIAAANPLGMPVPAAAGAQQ
recombinant human CK2, sequence (P67870 whole entry partner): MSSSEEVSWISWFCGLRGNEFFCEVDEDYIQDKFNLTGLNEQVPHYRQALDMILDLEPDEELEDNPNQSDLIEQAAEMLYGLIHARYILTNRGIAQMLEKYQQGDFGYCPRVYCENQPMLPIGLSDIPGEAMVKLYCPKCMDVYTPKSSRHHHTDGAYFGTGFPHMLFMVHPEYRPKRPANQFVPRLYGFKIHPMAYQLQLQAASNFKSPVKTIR

[5] = HCT-116, read-out: HCT-116 (uM), cell proliferation modulatory activity, HCT-116, second column
[6] = HCT-116, HCT-116, second column, read-out: HCT-116 (uM), cell proliferation modulatory activity

recombinant human PIM1, sequence (P11309 whole entry): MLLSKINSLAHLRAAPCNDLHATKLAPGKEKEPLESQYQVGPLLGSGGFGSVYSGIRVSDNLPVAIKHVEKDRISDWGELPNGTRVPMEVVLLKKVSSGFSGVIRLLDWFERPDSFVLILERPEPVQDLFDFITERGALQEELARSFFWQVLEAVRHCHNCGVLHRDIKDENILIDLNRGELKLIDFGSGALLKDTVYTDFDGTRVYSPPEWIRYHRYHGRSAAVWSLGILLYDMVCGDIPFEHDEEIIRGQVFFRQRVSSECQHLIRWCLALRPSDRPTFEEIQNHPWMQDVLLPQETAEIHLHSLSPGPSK

Structure (SMILES): O=C(O)c1ccc2c(c1)nc(Nc1cc(F)cc(F)c1)c1ncncc12
- inhibition at 0.5 µM (recombinant human PIM1; cell-free): 80%
- IC50 (recombinant human PIM1; cell-free): > 1.1 µM
- IC50 (Jurkat): 2.59 µM
- IC50 [1, 5]: 4.05 µM
- IC50 (K-562 [2]): 2.41 µM

Structure (SMILES): O=C(O)c1ccc2c(c1)nc(Nc1cccc(Cl)c1)c1ncncc12
- inhibition at 0.5 µM (recombinant human PIM1; cell-free): 68.2%
- IC50 (recombinant human PIM1; cell-free): 0.37 µM
- IC50 (Jurkat): 0.882 µM
- IC50 [1, 5]: 7.19 µM
- IC50 (K-562 [2]): 1.13 µM
- IC50 (MV-4-11): > 10 µM

Structure (SMILES): Fc1cccc(Nc2nc3cc(-c4nnn[nH]4)ccc3c3cnccc23)c1
- inhibition at 0.5 µM (recombinant human PIM1; cell-free): 45%
- IC50 (Jurkat): 9.43 µM

Structure (SMILES): O=C(O)c1ccc2c(c1)nc(Nc1cc(Cl)cc(Cl)c1)c1ccsc12
- inhibition at 0.5 µM (recombinant human PIM1; cell-free): 67.1%
- IC50 (Jurkat): 4.31 µM
- IC50 [1, 5]: 8.76 µM

Structure (SMILES): CNc1ncc2c(n1)c(Nc1ccccc1)nc1cc(C(=O)O)ccc12
- inhibition at 0.5 µM (recombinant human PIM1; cell-free): 20.8%
- IC50 (Jurkat): 0.728 µM
- IC50 [1, 5]: 2.99 µM
- IC50 (MV-4-11): > 10 µM

Structure (SMILES): O=C(O)c1ccc2c(c1)nc(Nc1ccc(Cl)cc1)c1ccncc12
- inhibition at 0.5 µM (recombinant human PIM1; cell-free): 83%
- IC50 (recombinant human PIM1; cell-free): 0.284 µM
- IC50 (Jurkat): 2.52 µM
- IC50 [1, 5]: 6.72 µM
- IC50 (K-562 [2]): 8.65 µM
- IC50 (MV-4-11): 1.56 µM

Structure (SMILES): COCCOc1ccc(Nc2nc3c(-c4nnc[nH]4)cccc3c3cnccc23)c(F)c1
- IC50 (recombinant human PIM1): < 0.1 µM
- IC50 (MDA MB231): < 1 µM
- IC50 (MV-411): < 0.1 µM
- IC50 (K-562 [3]): < 0.5 µM
- IC50 [4]: < 1 µM

Structure (SMILES): COC(=O)c1ccc2c(c1)[nH]c(=O)c1ccncc12 [drawing 562]
- IC50 (PARP-HSA enzyme; read-out: PARP Inhibition IC50): 0.8 µM

Structure (SMILES): CN(C)CCNc1nc2cc(C(=O)O)ccc2c2ccccc12 [drawing 563]
- PARP Inhibition (PARP-HSA enzyme): 15% (at 1 μM)

Structure (SMILES): O=C(O)c1ccc2c(c1)nc(Nc1ccccc1)c1ccccc12 [drawing 564]
- PARP Inhibition (PARP-HSA enzyme): 9% (at 1 μM)

Structure (SMILES): O=C(O)c1ccc2c(c1)nc(NCc1cccnc1)c1nc(NC3CC3)ncc12 [drawing 1058]
- IC50 (MDAMB231): > 50 µM

Structure (SMILES): O=C(O)c1ccc2c(c1)nc(NCc1ccccc1)c1nc(NC3CC3)ncc12 [drawing 1059]
- IC50 (MDAMB231): > 50 µM

Structure (SMILES): O=C(O)c1ccc2c(c1)nc(N1CCOCC1)c1nc(NC3CC3)ncc12 [drawing 1060]
- IC50 (MDAMB231): > 50 µM

Structure (SMILES): CC1CCCCN1CCCNc1ncc2c(n1)c(Nc1ccc(F)c(Cl)c1)nc1cc(C(=O)O)ccc12 (stereo not shown) [drawing 1062]
- IC50 (MDAMB231): 9.66 µM

Structure (SMILES): Cc1cc(Nc2ncc3c(n2)c(Nc2ccc(F)c(Cl)c2)nc2cc(C(=O)O)ccc23)[nH]n1 [drawing 1068]
- IC50 (MDAMB231): > 50 µM

Structure (SMILES): O=C(O)c1ccc2c(c1)nc(NC1CC1)c1ccncc12 [drawing 1072]
- IC50 (MDAMB231): > 50 µM

Structure (SMILES): COC(=O)c1ccc2c(c1)nc(NC1CC1)c1nc(SC)ncc12 [drawing 1074]
- IC50 (MDAMB231): 34.2 µM

Structure (SMILES): CN(C)CCNc1nc2cc(C(=O)O)ccc2c2cnc(NC3CC3)nc12 [drawing 1075]
- IC50 (MDAMB231): > 50 µM

Structure (SMILES): Nc1ncc2c(n1)c(NC1CC1)nc1cc(C(=O)O)ccc12 [drawing 1077]
- IC50 (MDAMB231): > 50 µM

Structure (SMILES): CCCNc1ncc2c(n1)c(NC1CC1)nc1cc(C(=O)O)ccc12 [drawing 1078]
- IC50 (MDAMB231): 4.36 µM

Structure (SMILES): O=C(O)c1ccc2c(c1)nc(Nc1cccc(Cl)c1)c1ccncc12 [drawing 1512]
- inhibition at 0.5 µM (recombinant human PIM1; cell-free): 90%
- IC50 (Jurkat): 3.42 µM
- IC50 [1, 6]: 5.09 µM
- IC50 (K-562 [2]): 4.39 µM
- inhibition at 0.5 µM (recombinant human CK2): 102%
- IC50 (MV-4-11): 1.68 µM

Structure (SMILES): C#Cc1cccc(Nc2nc3cc(C(=O)O)ccc3c3cncnc23)c1 [drawing 1544]
- inhibition at 0.5 µM (recombinant human PIM1; cell-free): 65.9%
- IC50 (recombinant human PIM1; cell-free): 0.306 µM
- IC50 (Jurkat): 3.34 µM
- IC50 [1, 6]: 5.86 µM
- IC50 (K-562 [2]): 2.48 µM
- IC50 (MV-4-11): 0.464 µM

Structure (SMILES): C#Cc1cccc(Nc2nc3cc(C(=O)O)ccc3c3cnccc23)c1 [drawing 1555]
- inhibition at 0.5 µM (recombinant human PIM1; cell-free): 84.1%
- IC50 (recombinant human PIM1; cell-free): 0.296 µM
- IC50 (Jurkat): 2.78 µM
- IC50 (K-562 [2]): 3.33 µM
- IC50 (MV-4-11): > 10 µM
